Data reported in ChEMBL document CHEMBL1201862, “PubChem BioAssay data set” (2004).
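96-well plates; 48 h exposure; 5 concentrations. Endpoints by linear interpolation between flanking doses. Not reached: highest tested concentration assigned. GI50: concentration for 50% inhibition of growth.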 The source made the active and inactive calls. Rule as the data show it: active = GI50 up to about 1.1 µM and inactive = higher.

Experiments:
Experiment in all cases: growth of human tumour cells (NCI), 48 h
UACC-62 = system: UACC-62
NCI-H23 = system: NCI-H23
SF-268 = system: SF-268
IGROV-1 = system: IGROV-1
ACHN = system: ACHN
HCT-116 = system: HCT-116
RXF 393 = system: RXF 393
HOP-92 = system: HOP-92
A549 = system: A549
NCI-H226 = system: NCI-H226
HCT-15 = system: HCT-15
XF498 = system: XF498
CAKI-1 = system: CAKI-1
HT-29 = system: HT-29
DMS-114 = system: DMS-114

SMILES	GI50 (UACC-62)	GI50 (NCI-H23)	GI50 (SF-268)	GI50 (IGROV-1)	GI50 (ACHN)	GI50 (HCT-116)	GI50 (RXF 393)	GI50 (HOP-92)	GI50 (A549)	GI50 (NCI-H226)	GI50 (HCT-15)	GI50 (XF498)	GI50 (CAKI-1)	GI50 (HT-29)	GI50 (DMS-114)
CCC(=O)C(C(=O)CC)c1c(OC(=O)c2ccccc2)ccc(O)c1C(=O)OC	> 100 µM (inactive)	> 100 µM (inactive)	> 100 µM (inactive)	> 100 µM (inactive)	> 100 µM (inactive)	> 100 µM (inactive)	> 100 µM (inactive)	> 100 µM (inactive)	> 100 µM (inactive)	> 100 µM (inactive)	> 100 µM	> 100 µM (inactive)	> 100 µM (inactive)	> 100 µM (inactive)	
CCOP(=O)(OCC)C1CCCOC1=O (stereo not given)	> 100 µM (inactive)	> 100 µM (inactive)	> 100 µM (inactive)	> 100 µM (inactive)	> 100 µM (inactive)	> 100 µM (inactive)	> 100 µM (inactive)		> 100 µM (inactive)		> 100 µM	> 100 µM (inactive)	> 100 µM (inactive)	> 100 µM (inactive)	> 100 µM (inactive)
CCCCc1c2c(nc3c1CCC/C3=C\c1ccccc1)C(=O)CCC2	22.6 µM (inactive)	24.2 µM (inactive)	21.3 µM (inactive)	18.6 µM (inactive)	25.7 µM (inactive)	20 µM (inactive)	17 µM (inactive)	22 µM (inactive)	25.6 µM (inactive)	18.4 µM (inactive)	21.8 µM	12.1 µM (inactive)		15.5 µM (inactive)	20.7 µM (inactive)
C1=CC(=P(c2ccccc2)(c2ccccc2)c2ccccc2)C=C1	6.25 µM (inactive)	11.5 µM (inactive)	10.3 µM (inactive)	11.5 µM (inactive)	14.2 µM (inactive)		13.7 µM (inactive)	6.14 µM (inactive)	14.1 µM (inactive)		29.7 µM	2.91 µM (inactive)	17.9 µM (inactive)	10.6 µM (inactive)	4.65 µM (inactive)
N#CC(C(=O)C(=O)Nc1ccccc1)c1ccccc1 (stereo not given)	> 100 µM (inactive)	> 100 µM (inactive)	> 100 µM (inactive)	> 100 µM (inactive)	> 100 µM (inactive)	> 100 µM (inactive)		> 100 µM (inactive)	> 100 µM (inactive)	> 100 µM (inactive)	> 100 µM	> 100 µM (inactive)	> 100 µM (inactive)	> 100 µM (inactive)	
CO/N=C(/C(=O)Nc1c[n+](CC(=O)[O-])cs1)c1csc(N)n1	> 100 µM (inactive)	> 100 µM (inactive)	> 100 µM (inactive)	> 100 µM (inactive)	> 100 µM (inactive)	> 100 µM (inactive)		> 100 µM (inactive)	> 100 µM (inactive)	> 100 µM (inactive)	> 100 µM	> 100 µM (inactive)	> 100 µM (inactive)	> 100 µM (inactive)	
Clc1ccc(-c2nnc(-c3nn(-c4ccccc4)c4nc5ccccc5nc34)o2)cc1	67.8 µM (inactive)	42.4 µM (inactive)	69.3 µM (inactive)	65.3 µM (inactive)	> 100 µM (inactive)	35.9 µM (inactive)	93.3 µM (inactive)		> 100 µM (inactive)	76 µM (inactive)	55 µM	13 µM (inactive)	> 100 µM (inactive)	> 100 µM (inactive)	26.1 µM (inactive)
OCCNCO	> 100 µM (inactive)	> 100 µM (inactive)	> 100 µM (inactive)	> 100 µM (inactive)	> 100 µM (inactive)	> 100 µM (inactive)	> 100 µM (inactive)	> 100 µM (inactive)	> 100 µM (inactive)	> 100 µM (inactive)	> 100 µM	> 100 µM (inactive)	> 100 µM (inactive)	> 100 µM (inactive)	
CS(=O)(=O)C1(Br)S(=O)(=O)OCCOS1(=O)=O	> 100 µM (inactive)	> 100 µM (inactive)	> 100 µM (inactive)	> 100 µM (inactive)	> 100 µM (inactive)	> 100 µM (inactive)	> 100 µM (inactive)	> 100 µM (inactive)	> 100 µM (inactive)	> 100 µM (inactive)	> 100 µM	> 100 µM (inactive)		> 100 µM (inactive)	> 100 µM (inactive)
CCOC(=O)C1=C(C)NC2=C(C(=O)N(c3ccccc3)C2c2ccccc2)C1c1ccccc1 (stereo not given)	12.6 µM (inactive)	17.2 µM (inactive)	15.7 µM (inactive)	15.4 µM (inactive)	14.1 µM (inactive)	16.9 µM (inactive)		11.2 µM (inactive)	17.8 µM (inactive)	19.9 µM (inactive)	16 µM	18.1 µM (inactive)	16 µM (inactive)	19.9 µM (inactive)	16.7 µM (inactive)
COc1ccc(-c2oc(/C=N/c3ccccc3)c([N+](=O)[O-])c2-c2ccc(OC)c(OC)c2)cc1OC	> 100 µM (inactive)	> 100 µM (inactive)	> 100 µM (inactive)	> 100 µM (inactive)	> 100 µM (inactive)	> 100 µM (inactive)	> 100 µM (inactive)	65.6 µM (inactive)	> 100 µM (inactive)	> 100 µM (inactive)	> 100 µM	> 100 µM (inactive)	> 100 µM (inactive)	> 100 µM (inactive)	> 100 µM (inactive)
COC(=O)C1Cc2c([nH]c3ccccc23)[C@H](CC(C)C)N1 (stereo not given in full)	> 100 µM (inactive)	> 100 µM (inactive)	> 100 µM (inactive)	> 100 µM (inactive)	> 100 µM (inactive)	> 100 µM (inactive)	> 100 µM (inactive)	> 100 µM (inactive)	> 100 µM (inactive)	> 100 µM (inactive)		> 100 µM (inactive)		> 100 µM (inactive)	> 100 µM (inactive)
[O-][S+](c1ccc(O)cc1)c1ccc(O)cc1	> 100 µM (inactive)	> 100 µM (inactive)	> 100 µM (inactive)	> 100 µM (inactive)		> 100 µM (inactive)	> 100 µM (inactive)	> 100 µM (inactive)	> 100 µM (inactive)	> 100 µM (inactive)	> 100 µM	> 100 µM (inactive)	> 100 µM (inactive)	> 100 µM (inactive)	> 100 µM (inactive)
N#CC(C#N)=C(N)/C(C#N)=C\c1ccnc2ccccc12	18.9 µM (inactive)	19.9 µM (inactive)	18.5 µM (inactive)	22.1 µM (inactive)	40.6 µM (inactive)	0.962 µM (active)	18.6 µM (inactive)	23 µM (inactive)	> 100 µM (inactive)			30.1 µM (inactive)	23.6 µM (inactive)	24.8 µM (inactive)	16.8 µM (inactive)
C(=C\C(Sc1ccccc1)c1ccccc1)/NNC1=NN=C(c2ccccc2)C(c2ccccc2)N1 (stereo not given)	21.5 µM (inactive)	31.2 µM (inactive)	> 100 µM (inactive)	68.5 µM (inactive)	44.7 µM (inactive)	42.2 µM (inactive)		16.3 µM (inactive)	58.7 µM (inactive)	64.4 µM (inactive)	23.5 µM	77.1 µM (inactive)	24.8 µM (inactive)	12 µM (inactive)	35.8 µM (inactive)
